# Data: ChEMBL document CHEMBL3638701, “Inhibitors of protein kinases” (2015)
# Tests used:
# [1] = target: Cyclin-dependent kinase 1 (Homo sapiens, UniProt P06493); test: (§1) In Vitro Kinase Inhibition Assay: In vitro kinase assay analysis may be performed using standard techniques described in the art. These techniques are also used by commercial services providers in order to offer in vitro kinase activity assay services, e.g. the assays offered by Millipore Inc. (worldwide website www(dot)millipore.com), ProQinase GmbH (worldwide website www(dot)proqinase.de) and others. All kinase assays were performed in 96-well FlashPlates from Perkin Elmer/NEN (Boston, Mass., USA) in a 50ul reaction volume. The reaction mixture was pipetted in four steps in the following order: 20ul of assay buffer (standard buffer),5ul of ATP solution (in H2O, 5 ul of test compound (in 10% DMSO), 10ul of substrate/10ul of enzyme solution (premixed)The assay for all enzymes contained 60 mM HEPES-NaOH (pH 7.5), 3 mM MgCl2, 3 mM MnCl2, 3uM Na-Orthovanadate, 1.2 mM DTT, 50 ug/ml PEG2000, 1 uM [33P]-ATP (approx. 5x1005 cpm per well).
# [2] = target: Cyclin-dependent kinase 2 (Homo sapiens, UniProt P24941); test: as §1
# [3] = target: Cyclin-dependent kinase 3 (Homo sapiens, UniProt Q00526); test: as §1
# [4] = target: Cyclin-dependent kinase 5 (Homo sapiens, UniProt Q00535); test: as §1
# [5] = target: Cyclin-dependent kinase 6 (Homo sapiens, UniProt Q00534); test: as §1
# [6] = target: Cyclin-dependent kinase 7 (Homo sapiens, UniProt P50613); test: as §1
# [7] = target: Cyclin-dependent kinase 9 (Homo sapiens, UniProt P50750); test: as §1
# [8] = target: Glycogen synthase kinase-3 alpha (Homo sapiens, UniProt P49840); test: as §1
# [9] = target: Glycogen synthase kinase-3 beta (Homo sapiens, UniProt P49841); test: as §1
# [10] = target: Interleukin-1 receptor-associated kinase 1 (Homo sapiens, UniProt P51617); test: as §1
# Interleukin-1 receptor-associated kinase 1, sequence (P51617 whole entry): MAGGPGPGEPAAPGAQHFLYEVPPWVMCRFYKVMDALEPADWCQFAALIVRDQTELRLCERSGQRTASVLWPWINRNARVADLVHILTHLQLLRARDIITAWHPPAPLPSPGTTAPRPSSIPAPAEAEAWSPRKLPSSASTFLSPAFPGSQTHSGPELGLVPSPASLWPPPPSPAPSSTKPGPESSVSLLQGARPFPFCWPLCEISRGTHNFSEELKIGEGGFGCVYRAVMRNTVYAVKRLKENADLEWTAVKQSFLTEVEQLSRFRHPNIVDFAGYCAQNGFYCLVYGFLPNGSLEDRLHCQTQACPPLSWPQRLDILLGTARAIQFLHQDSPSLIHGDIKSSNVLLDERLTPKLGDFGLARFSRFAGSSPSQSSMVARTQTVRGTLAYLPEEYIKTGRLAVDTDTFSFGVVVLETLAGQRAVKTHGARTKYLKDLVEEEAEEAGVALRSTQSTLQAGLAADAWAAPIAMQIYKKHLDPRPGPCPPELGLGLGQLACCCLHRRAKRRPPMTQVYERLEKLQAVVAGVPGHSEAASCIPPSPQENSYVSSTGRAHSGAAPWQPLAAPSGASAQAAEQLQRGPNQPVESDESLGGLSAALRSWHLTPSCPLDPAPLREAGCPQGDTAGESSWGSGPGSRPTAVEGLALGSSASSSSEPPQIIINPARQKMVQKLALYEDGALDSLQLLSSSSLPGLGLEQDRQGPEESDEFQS
# Glycogen synthase kinase-3 beta, sequence (P49841 whole entry): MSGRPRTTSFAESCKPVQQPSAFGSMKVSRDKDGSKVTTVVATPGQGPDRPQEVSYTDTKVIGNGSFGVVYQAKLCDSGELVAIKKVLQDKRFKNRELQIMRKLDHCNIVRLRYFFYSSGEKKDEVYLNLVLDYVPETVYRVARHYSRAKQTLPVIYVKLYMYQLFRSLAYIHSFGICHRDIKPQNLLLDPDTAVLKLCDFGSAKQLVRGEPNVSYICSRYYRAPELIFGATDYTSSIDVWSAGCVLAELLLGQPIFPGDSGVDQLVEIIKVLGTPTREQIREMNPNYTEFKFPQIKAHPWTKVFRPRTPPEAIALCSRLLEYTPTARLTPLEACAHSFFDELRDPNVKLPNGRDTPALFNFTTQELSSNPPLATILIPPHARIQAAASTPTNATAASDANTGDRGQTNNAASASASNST
# Cyclin-dependent kinase 6, sequence (Q00534 whole entry): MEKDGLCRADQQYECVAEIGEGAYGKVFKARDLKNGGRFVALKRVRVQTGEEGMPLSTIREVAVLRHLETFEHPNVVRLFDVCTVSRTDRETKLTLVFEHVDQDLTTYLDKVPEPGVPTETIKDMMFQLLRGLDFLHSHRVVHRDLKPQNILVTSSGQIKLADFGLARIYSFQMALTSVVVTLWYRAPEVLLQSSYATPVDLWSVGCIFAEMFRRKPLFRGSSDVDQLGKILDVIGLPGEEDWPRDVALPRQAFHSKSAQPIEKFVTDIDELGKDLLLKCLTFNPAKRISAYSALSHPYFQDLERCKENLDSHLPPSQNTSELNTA
# Cyclin-dependent kinase 7, sequence (P50613 whole entry): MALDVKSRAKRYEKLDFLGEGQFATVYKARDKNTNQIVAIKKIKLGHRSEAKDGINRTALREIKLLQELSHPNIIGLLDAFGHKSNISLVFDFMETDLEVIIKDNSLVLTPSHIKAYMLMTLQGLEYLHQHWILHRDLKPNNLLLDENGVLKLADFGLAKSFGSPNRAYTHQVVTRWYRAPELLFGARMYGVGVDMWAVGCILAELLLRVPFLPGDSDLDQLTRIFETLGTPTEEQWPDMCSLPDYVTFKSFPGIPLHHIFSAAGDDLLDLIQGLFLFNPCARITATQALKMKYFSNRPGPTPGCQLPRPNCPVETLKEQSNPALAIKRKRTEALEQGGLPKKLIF
# Glycogen synthase kinase-3 alpha, sequence (P49840 whole entry): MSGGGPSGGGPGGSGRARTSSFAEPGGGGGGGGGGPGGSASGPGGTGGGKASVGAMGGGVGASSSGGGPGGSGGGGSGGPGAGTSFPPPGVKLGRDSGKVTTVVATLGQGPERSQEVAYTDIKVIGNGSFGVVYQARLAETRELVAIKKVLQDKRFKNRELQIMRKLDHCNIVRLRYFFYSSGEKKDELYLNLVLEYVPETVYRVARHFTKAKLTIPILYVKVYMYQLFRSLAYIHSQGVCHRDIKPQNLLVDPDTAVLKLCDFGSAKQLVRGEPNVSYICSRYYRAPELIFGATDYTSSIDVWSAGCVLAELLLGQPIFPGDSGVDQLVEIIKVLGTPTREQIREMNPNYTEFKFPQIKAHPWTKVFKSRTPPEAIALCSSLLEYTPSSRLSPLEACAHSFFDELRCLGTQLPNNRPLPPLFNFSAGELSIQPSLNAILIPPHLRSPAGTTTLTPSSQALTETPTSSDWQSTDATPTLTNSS
# Cyclin-dependent kinase 9, sequence (P50750 whole entry): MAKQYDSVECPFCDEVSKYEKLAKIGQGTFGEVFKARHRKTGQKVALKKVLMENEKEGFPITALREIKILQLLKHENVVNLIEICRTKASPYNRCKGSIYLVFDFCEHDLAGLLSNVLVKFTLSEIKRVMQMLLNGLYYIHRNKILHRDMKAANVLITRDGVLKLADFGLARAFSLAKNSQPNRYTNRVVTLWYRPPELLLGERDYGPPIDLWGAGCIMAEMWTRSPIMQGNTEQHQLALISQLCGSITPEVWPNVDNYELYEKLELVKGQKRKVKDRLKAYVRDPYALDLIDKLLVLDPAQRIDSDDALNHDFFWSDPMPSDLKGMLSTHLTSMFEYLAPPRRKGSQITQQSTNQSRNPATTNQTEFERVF
# Cyclin-dependent kinase 1, sequence (P06493 whole entry): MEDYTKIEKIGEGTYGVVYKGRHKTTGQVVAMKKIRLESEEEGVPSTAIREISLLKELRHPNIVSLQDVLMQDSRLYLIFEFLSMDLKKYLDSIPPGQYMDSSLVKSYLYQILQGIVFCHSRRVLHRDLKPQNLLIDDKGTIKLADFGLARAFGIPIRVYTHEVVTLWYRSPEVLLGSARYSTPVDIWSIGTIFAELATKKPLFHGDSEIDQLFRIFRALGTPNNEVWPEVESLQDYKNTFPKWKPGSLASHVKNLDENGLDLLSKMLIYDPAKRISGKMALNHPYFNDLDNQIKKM
# Cyclin-dependent kinase 5, sequence (Q00535 whole entry): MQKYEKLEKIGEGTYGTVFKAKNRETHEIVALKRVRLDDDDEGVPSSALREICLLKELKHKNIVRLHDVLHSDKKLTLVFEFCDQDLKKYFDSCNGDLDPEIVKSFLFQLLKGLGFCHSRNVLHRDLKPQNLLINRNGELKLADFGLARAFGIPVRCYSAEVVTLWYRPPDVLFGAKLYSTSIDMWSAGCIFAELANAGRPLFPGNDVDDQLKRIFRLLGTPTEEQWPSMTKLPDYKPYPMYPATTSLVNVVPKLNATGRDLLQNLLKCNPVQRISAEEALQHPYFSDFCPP
# Cyclin-dependent kinase 3, sequence (Q00526 whole entry): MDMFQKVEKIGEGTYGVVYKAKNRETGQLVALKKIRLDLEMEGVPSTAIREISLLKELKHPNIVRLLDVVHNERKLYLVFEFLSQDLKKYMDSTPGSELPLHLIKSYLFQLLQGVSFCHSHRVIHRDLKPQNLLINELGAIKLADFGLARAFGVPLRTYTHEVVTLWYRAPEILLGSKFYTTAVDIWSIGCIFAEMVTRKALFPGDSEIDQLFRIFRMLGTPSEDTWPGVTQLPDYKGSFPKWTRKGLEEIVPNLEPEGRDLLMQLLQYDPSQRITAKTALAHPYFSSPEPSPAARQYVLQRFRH
smiles,measurement,setting,value
COc1cc(F)ccc1-c1ccnc(NC(=O)[C@@H]2CC[C@H](NC(C)=O)C2)c1,IC50,[1],1880 nM
same,IC50,[2],913 nM
same,IC50,[3],1450 nM
same,IC50,[4],1340 nM
same,IC50,[5],> 5000 nM
same,IC50,[6],> 5000 nM
same,IC50,[7],10 nM
same,IC50,[8],99 nM
same,IC50,[9],857 nM
same,IC50,[10],> 5000 nM
